Our source for the IC50 and EC50 values is patent publication US11312701B2, “Formylpyridine derivative having FGFR4 inhibitory activity, preparation method therefor and use thereof” (Abbisko Therapeutics Co., Ltd., priority 2017, dated 2022).

Each structure is given as a SMILES string.

One assay addresses FGFR4 (Homo sapiens, UniProt P22455). In words: FGFR4 Caliper Assay (in vitro biochemical kinase analysis). The conditions noted are these: Caliper mobility shift, 65 μM ATP, 30° C. 40 minutes; read-out: Enzymatic activity FGFR4 IC50. The protocol:
I. In Vitro Biochemical Kinase Analysis of FGFR4
FGFR4 Caliper Assay was used in the present invention to determine the inhibitory activities • of the compounds against FGFR4. The specific experimental procedure was as follows: 1. The kinase reaction in the present invention was carried out in a 384-well plate, and […] of FGFR4, 65 μM of ATP and 1 μM of peptide (5 Fluo Ahx KKKKEEIYFFFG NH2) were respectively added into the following reaction system. • 2. A reaction system is a mixture solution of 50 mM HEPES, pH 7.5, 1 mM DTT, 0.02% Tween 20, 0.02% BSA, 0.6% DMSO, 10 mM beta glycerol phosphate and 10 μM sodium orthovanadate and 16 mM MgCl2. • 3. The reaction system was incubated at 30° C. for 40 minutes. • 4. The reaction was terminated by adding a stop solution (100 mM HEPES, pH 7.5, 5% DMSO, 0.1% Caliper coating reagent, 10 mM EDTA and 0.015% Brij35). • 5. The culture plate with the terminated kinase reaction was transferred to the Caliper LC 3000 workstation to read the data, the phosphorylated and unphosphorylated peptides were separated by using the Caliper microfluid migration shift technique, and the analyte was transferred by allowing a constant buffer flow through the chip, the migration of the substrate peptide was monitored by the labeled fluorescent signal, and the kinase activity was calculated by using the amount of the phosphate-based peptide formed. • 6. Finally, IC50 values were determined by non-linear regression analysis of percent inhibition at different compound concentrations. II. FGFR4 Cell Proliferation Experiment

Assay [1] deals with Huh7 hepatocellular carcinoma cells. In words: Cell Titer Glo (CTG) cell proliferation experiment. Format: cell-based. The conditions noted are these: Homo sapiens, 72 h, HuH-7 cells, 3 days; for IC50: concentration leading to absolute half growth inhibition; for EC50: concentration leading to half maximal growth inhibition. The protocol:
Cell Titer Glo (CTG) experiment was used in the present invention to evaluate the functional effects of the compounds on cell proliferation. Huh7 hepatocellular carcinoma cells (Catalog No. TChU182) from the Chinese Academy of Sciences cell bank were cultured in DMEM with high glucose (Gibco, cat. No. 1773536), 10% fetal bovine serum (Gibco, 10099-141) at 37° C., in a 5% CO2 incubator. Compound-mediated inhibition of cell proliferation/survival was assessed by quantification of cellular ATP levels using CTG reagent (Promega, #G7573). The specific experimental procedure was as follows: • 1. The cells were seeded into a tissue culture medium-treated 96-well plate (Costar #3904) at 3500 cells/well/90 μL of fresh medium; • 2. 10 μL of medium containing a compound concentration of 10 fold of its final test concentration was added; • 3. The dose effect as evaluated by a 5-fold serial dilution of the test compound, starting from 10 μM. • 4. After cells incubation for 3 days at 37° C. in a 5% CO2 atmosphere, the effect of the inhibitor on cell proliferation was quantified after adding 50 μL of CTG and testing with luminescence. • 5. The concentration of the compound (EC50) leading to half maximal growth inhibition and the concentration of compound (Absolute IC50) leading to absolute half growth inhibition were determined using a four-parameter curve fit in Graphpad Prism in a plate reader (M1000, Tecan).

Sequence of FGFR4 (P22455 22-802): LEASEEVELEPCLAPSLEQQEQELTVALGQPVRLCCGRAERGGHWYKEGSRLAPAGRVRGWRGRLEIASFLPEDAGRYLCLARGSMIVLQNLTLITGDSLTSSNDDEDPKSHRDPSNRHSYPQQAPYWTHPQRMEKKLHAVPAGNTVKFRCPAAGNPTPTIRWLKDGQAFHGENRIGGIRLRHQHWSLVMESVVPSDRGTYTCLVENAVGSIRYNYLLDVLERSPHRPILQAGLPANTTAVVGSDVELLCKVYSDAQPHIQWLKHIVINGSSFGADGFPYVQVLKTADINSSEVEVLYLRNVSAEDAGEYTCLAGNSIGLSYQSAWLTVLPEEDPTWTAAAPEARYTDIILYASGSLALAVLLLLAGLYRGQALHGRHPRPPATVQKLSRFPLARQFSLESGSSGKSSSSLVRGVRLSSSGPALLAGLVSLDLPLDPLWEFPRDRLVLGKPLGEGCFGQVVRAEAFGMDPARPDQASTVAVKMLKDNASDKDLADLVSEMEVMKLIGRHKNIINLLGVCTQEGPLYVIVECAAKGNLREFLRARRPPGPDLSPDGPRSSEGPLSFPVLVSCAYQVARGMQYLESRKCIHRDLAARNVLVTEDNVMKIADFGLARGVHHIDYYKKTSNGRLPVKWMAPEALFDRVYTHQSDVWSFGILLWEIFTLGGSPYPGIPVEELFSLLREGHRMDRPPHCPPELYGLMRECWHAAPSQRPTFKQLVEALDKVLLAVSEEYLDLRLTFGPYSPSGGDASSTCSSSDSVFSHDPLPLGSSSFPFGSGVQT

Regarding `COC1CCN(c2cc(NC(=O)N(C)c3ccc(CN4CCN(C)CC4=O)c(C=O)n3)ncc2C#N)C1` (centres unmarked) [Example 17, 3-(5-cyano-4-(3-methoxypyrrolidin-1-yl)pyridin-2-yl)-1-(6-formyl-5-((4-methyl-2-oxopiperazin-1-yl)methyl)pyridin-2-yl)-1-methylurea], on FGFR4, the IC50 was determined as 6.5 nM. Besides, in assay [1], the midpoint of inhibition, the IC50, lay at 84.9 nM and the EC50 amounted to 38.1 nM.
As for `CN1CCN(Cc2ccc(N(C)C(=O)Nc3cc(NCC4CC4)c(C#N)cn3)nc2C=O)C(=O)C1` [Example 4, 3-(5-cyano-4-((cyclopropylmethyl)amino)pyridin-2-yl)-1-(6-formyl-5-((4-methyl-2-oxopiperazin-1-yl)methyl)pyridin-2-yl)-1-methylurea], the results for the IC50 (at FGFR4; in assay [1]) were 3.8 nM and 77.4 nM, respectively. In assay [1], this compound displayed an EC50 of 25.6 nM.
As for `CC(C)Sc1cc(NC(=O)N(C)c2ccc(CN3CCN(C)CC3=O)c(C=O)n2)ncc1C#N` [Example 34, 3-(5-cyano-4-(isopropylthio)pyridin-2-yl)-1-(6-formyl-5-((4-methyl-2-oxopiperazin-1-yl)methyl)pyridin-2-yl)-1-methylurea], the IC50 at FGFR4 is 2.9 nM. In addition, in assay [1], the IC50 stood at 118 nM and the EC50 turned out to be 40.8 nM.
With `N#Cc1cnc(NC(=O)C2(c3cccc(C=O)n3)CC2)cc1NC1CC1` [Example 52, N-(5-cyano-4-(cyclopropylamino)pyridin-2-yl)-1-(6-formylpyridin-2-yl)cyclopropane-1-carboxamide], the IC50 on FGFR4 came to 16.3 nM.
With `CN1CCN(Cc2ccc(N(C)C(=O)Nc3cc(OCC4CC4)c(C#N)cn3)nc2C=O)C(=O)C1` [Example 39, 3-(5-cyano-4-(cyclopropylmethoxy)pyridin-2-yl)-1-(6-formyl-5-((4-methyl-2-oxopiperazin-1-yl)methyl)pyridin-2-yl)-1-methylurea], on FGFR4, the IC50 came out at 3.4 nM. In assay [1], this compound displayed an IC50 of 100 nM and an EC50 of 48.8 nM.
For `CCN(C(=O)Nc1cc(NC2CC2)c(C#N)cn1)c1ccc(CN2CCN(C)CC2=O)c(C=O)n1` [Example 51, 3-(5-cyano-4-(cyclopropylamino)pyridin-2-yl)-1-ethyl-1-(6-formyl-5-((4-methyl-2-oxopiperazin-1-yl)methyl)pyridin-2-yl)urea], in that order: 1.4 nM, 65 nM and 27 nM.
As for `COC1CC(Nc2cc(NC(=O)N(C)c3ccc(CN4CCN(C)CC4=O)c(C=O)n3)ncc2C#N)C1` (centres unmarked) [Example 8, 3-(5-cyano-4-((3-methoxycyclobutyl)amino)pyridin-2-yl)-1-(6-formyl-5-((4-methyl-2-oxopiperazin-1-yl)methyl)pyridin-2-yl)-1-methylurea], the IC50 on FGFR4 was determined as 5.8 nM.
For the compound `CN1CCN(Cc2ccc(N(C)C(=O)Nc3cc(NC4CCOC4)c(C#N)cn3)nc2C=O)C(=O)C1` (centres unmarked) [Example 14, 3-(5-cyano-4-((tetrahydrofuran-3-yl)amino)pyridin-2-yl)-1-(6-formyl-5-((4-methyl-2-oxopiperazin-1-yl)methyl)pyridin-2-yl)-1-methylurea], the IC50 on FGFR4 was 5.7 nM. In assay [1], this compound displayed an IC50 of 57.4 nM and an EC50 of 20.1 nM.
In the case of `CN1CCN(Cc2ccc(N(C)C(=O)Nc3cc(NCCF)c(C#N)cn3)nc2C=O)C(=O)C1` [Example 2, 3-(5-cyano-4-((2-fluoroethyl)amino)pyridin-2-yl)-1-(6-formyl-5-((4-methyl-2-oxopiperazin-1-yl)methyl)pyridin-2-yl)-1-methylurea], on FGFR4, the IC50 came to 8 nM.
In the case of `CN1CCN(Cc2ccc(N(C)C(=O)Nc3cc(NCC4CCCO4)c(C#N)cn3)nc2C=O)C(=O)C1` (centres unmarked) [Example 21, 3-(5-cyano-4-(((tetrahydrofuran-2-yl)methyl)amino)pyridin-2-yl)-1-(6-formyl-5-((4-methyl-2-oxopiperazin-1-yl)methyl)pyridin-2-yl)-1-methylurea], the IC50 at FGFR4 was 8 nM; in assay [1], 55.4 nM. The compound also showed an EC50 in assay [1] of 22.7 nM.
In assay [1], `CN1CCN(Cc2ccc(N(C)C(=O)Nc3cc(N4CCC5(CCOC5)C4)c(C#N)cn3)nc2C=O)C(=O)C1` (centres unmarked) [Example 30, 3-(5-cyano-4-(2-oxa-7-azaspiro[4.4]nonan-7-yl)pyridin-2-yl)-1-(6-formyl-5-((4-methyl-2-oxopiperazin-1-yl)methyl)pyridin-2-yl)-1-methylurea] had an IC50 of 206 nM and an EC50 of 76.8 nM.
For the compound `CN1CCN(Cc2ccc(N(C)C(=O)Nc3cc(NC4CC4)c(I)cn3)nc2C=O)C(=O)C1` [Example 56, 3-(4-(cyclopropylamino)-5-iodopyridin-2-yl)-1-(6-formyl-5-((4-methyl-2-oxopiperazin-1-yl)methyl)pyridin-2-yl)-1-methylurea], the half-inhibitory concentration (IC50) at FGFR4 was determined as 8.1 nM; in assay [1], 223 nM. In assay [1], this compound had an EC50 of 93 nM.
On the same counts, the results for `CN1CCN(Cc2ccc(N(C)C(=O)Nc3cc(NC4CC(F)(F)C4)c(C#N)cn3)nc2C=O)C(=O)C1` [Example 7, 3-(5-cyano-4-((3,3-difluorocyclobutyl)amino)pyridin-2-yl)-1-(6-formyl-5-((4-methyl-2-oxopiperazin-1-yl)methyl)pyridin-2-yl)-1-methylurea] are 2.8 nM, 63.2 nM and 20.4 nM.
In the case of `COC1(C)CN(c2cc(NC(=O)N(C)c3ccc(CN4CCN(C)CC4=O)c(C=O)n3)ncc2C#N)C1` [Example 11, 3-(5-cyano-4-(3-methoxy-3methylazetidin-1-yl)pyridin-2-yl)-1-(6-formyl-5-((4-methyl-2-oxopiperazin-1-yl)methyl)pyridin-2-yl)-1-methylurea], the IC50 on FGFR4 was found to be 6.9 nM. In assay [1], this compound yielded an IC50 of 177 nM and an EC50 of 82.2 nM.
On the same counts, the results for `CN1CCN(Cc2ccc(N(C)C(=O)Nc3cc(NC4CC4)c(C#N)cn3)nc2C=O)C(=O)C1` [Example 1, 3-(5-cyano-4-(cyclopropylamino)pyridin-2-yl)-1-(6-formyl-5-((4-methyl-2-oxopiperazin-1-yl)methyl)pyridin-2-yl)-1-methylurea] are 2 nM, 26.2 nM and 8.3 nM.
On the same counts, the results for `CN1CCN(Cc2ccc(N(C)C(=O)Nc3cc(NC4CCC(F)(F)C4)c(C#N)cn3)nc2C=O)C(=O)C1` (centres unmarked) [Example 15, 3-(5-cyano-4-((3,3-difluorocyclopentyl)amino)pyridin-2-yl)-1-(6-formyl-5-((4-methyl-2-oxopiperazin-1-yl)methyl)pyridin-2-yl)-1-methylurea] are 2.3 nM, 48.6 nM and 19.3 nM.
On the same counts, the results for `CN1CCN(Cc2ccc(N(C)C(=O)Nc3cc(N4CCOCC4)c(C#N)cn3)nc2C=O)C(=O)C1` [Example 24, 3-(5-cyano-4-morpholinopyridin-2-yl)-1-(6-formyl-5-((4-methyl-2-oxopiperazin-1-yl)methyl)pyridin-2-yl)-1-methylurea] are 52.2 nM, 1800 nM and 1080 nM.
With `COCCOc1cc(NC(=O)N(C)c2ccc(CN3CCN(C)CC3=O)c(C=O)n2)ncc1C#N` [Example 36, 3-(5-cyano-4-(2-methoxyethoxy)pyridin-2-yl)-1-(6-formyl-5-((4-methyl-2-oxopiperazin-1-yl)methyl)pyridin-2-yl)-1-methylurea], the IC50 at FGFR4 was 17.1 nM. For the same compound, in assay [1], the IC50 was 410 nM and a half-maximal response (EC50) required 190 nM.

Usually IC50 stands for the point on the concentration scale where inhibition reaches its midpoint. A word on the EC50: it is the concentration at which the effect is half-maximal. A lower EC50 goes with an effect from little substance.
